These results are taken from patent US8604206B2, “Compositions for preventing and/or treating degenerative disorders of the central nervous system” (Amicus Therapeutics, Inc., priority 2009, dated 2013).

In one assay the target is GCase (Homo sapiens (Human), UniProt P04062). The experiment in a line: GCase activity enhancement (EC50, Emax) of Table 2B. It is filed as cell-based.
The next assay has as its target lysosomal GCase (Homo sapiens (Human), UniProt P04062). The experiment in a line: In situ lysosomal GCase inhibition and washout assay in fibroblasts from a normal subject. It is filed as cell-based. To be noted: for in situ washout: fibroblasts treated at IC90, then drug-free medium; for IC50: fibroblasts, 16-24 hours with compound, PFBFDβGlu substrate. As to the method:
The effect of the novel compounds of the present invention on lysosomal GCase activity was assayed in situ using fibroblasts established from a normal subject. Cells seeded in 48-well plates were incubated with the indicated concentrations of compound for 16-24 hours. For the dose-response assays, cells were incubated with the in situ substrate 5-(pentafluorobenzoylamino)fluorescein di-β-D-glucopyranoside (PFBFDβGlu) for 1 hour and subsequently lysed to determine the extent of substrate hydrolysis in the presence of compound. […] Inhibition was determined as the ratio of activity in the presence of compound to that in the absence of compound. […] Cells were washed extensively and incubated in drug-free medium to allow net compound efflux from cells. Cells were then tested for lysosomal GCase activity at 2 hour intervals over a total period of 8 hours following compound removal. The increase in activity over time was fitted with a single exponential function to determine the compound's washout time.

In assay [1] the target is recombinant human GCase (rhGCase; Cerezyme®) (Homo sapiens (Human), UniProt P04062, R534H). Briefly: In vitro enzyme inhibition assay (4-MU-β-D-Glc substrate), inhibition constants. It is filed as biochemical. As to the method:
The binding affinity (defined here by Ki binding constant) of GCase for novel compounds of the present invention were empirically determined using enzyme inhibition assays. In brief, the enzyme inhibition assays used monitored the ability of a test compound to bind and prevent the hydrolysis of a fluorogenic substrate in a concentration-dependent mariner. Specifically, the enzyme activity of recombinant human GCase (rhGCase; Cerezyme®, Genzyme Corp.) was measured using the 4-methylumbelliferyl-β-D-glucopyranoside (4-MU-β-D-Glc) fluorogenic substrate in the absence or in the presence of varying amounts of each test compound. […] The enzyme inhibition assays were performed at both pH 7.0 (endoplasmic reticulum pH) and at pH 5.2 (lysosomal pH) to gain insight into the binding affinity (i.e., potency) of compounds for GCase in the endoplasmic reticulum and lysososome.
Various concentrations of test compounds were prepared in buffer “M” consisting of 50 mM sodium phosphate buffer with 0.25% sodium taurocholate at pH 7.0 and pH 5.2. Enzyme (Cerezyme®, a recombinant form of the human enzyme β-glucocerebrosidase) was also diluted in the same buffer “M” at pH 7.0 and pH 5.2. […] Five microliters of diluted enzyme was added to 15 μl of the various inhibitor concentrations or buffer “M” alone and incubated at 37° C. for 1 hour with 50 μl of the substrate preparation to assess β-glucosidase activity at pH 7.0 and pH 5.2. […] Fluorescence was measured on a plate reader for 1 sec/well using 355 nm excitation and 460 nm emission.

[2] abbreviates: pH 5.2, Cheng-Prusoff from IC50, read-out: Ki (μM) pH 5.2.
The mark [3] stands for this setting: pH 5.2, read-out: IC50 (μM) pH 5.2.
The mark [4] stands for this setting: pH 7.0, Cheng-Prusoff from IC50, read-out: Ki (μM) pH 7.0.
[5] abbreviates: pH 7.0, read-out: IC50 (μM) pH 7.0.
[6] abbreviates: pH 5.2, repeated in Table 3A, read-out: Ki pH 5.2.
[7] abbreviates: pH 5.2, repeated in Table 3B, read-out: Ki pH 5.2.

Counter-ions that a name gives are not always drawn. Like-named read-outs stand apart in the source and are kept apart here.

Sequence of recombinant human GCase (rhGCase; Cerezyme®) (P04062 40-536 R534H limits assumed): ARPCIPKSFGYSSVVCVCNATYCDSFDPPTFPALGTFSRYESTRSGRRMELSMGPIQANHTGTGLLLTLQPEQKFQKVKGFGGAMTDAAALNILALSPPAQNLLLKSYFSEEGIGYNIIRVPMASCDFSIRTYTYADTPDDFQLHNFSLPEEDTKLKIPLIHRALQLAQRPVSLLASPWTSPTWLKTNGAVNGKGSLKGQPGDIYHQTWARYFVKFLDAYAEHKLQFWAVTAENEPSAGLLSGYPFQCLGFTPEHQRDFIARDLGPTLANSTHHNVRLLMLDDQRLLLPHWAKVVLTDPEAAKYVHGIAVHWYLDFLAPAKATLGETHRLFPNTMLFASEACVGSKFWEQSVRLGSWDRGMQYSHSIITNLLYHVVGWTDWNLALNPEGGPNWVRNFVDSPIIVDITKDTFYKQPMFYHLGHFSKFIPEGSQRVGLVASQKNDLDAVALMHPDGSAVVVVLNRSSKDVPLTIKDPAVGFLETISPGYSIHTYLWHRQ
Sequence of GCase (P04062 40-536): as the sequence (P04062 40-536 R534H limits assumed) above, with H495R counted along it
Sequence of lysosomal GCase (P04062 40-536): as the sequence (P04062 40-536 R534H limits assumed) above, with H495R counted along it

For the compound `CC(O)[C@H]1CNC[C@@H](O)[C@@H]1O` (single isomer, unassigned), the “increase in GCase activity compared to IFG-tartrate” value on GCase (compared to reference compound IFG-tartrate) was “enhanced enzyme activity to the same maximum level as reference compound IFG-tartrate at much lower concentration”. Moreover, the “inhibition of GCase activity” value against lysosomal GCase is given as “inhibited GCase activity”.

With `CC(O)[C@H]1CNC[C@@H](O)[C@@H]1O` (single isomer, unassigned) [Cmpd 9], the EC50 (as a rule, the concentration at which the effect is half-maximal) on GCase was 0.49 ± 0.06 µM. Moreover, at GCase, the Emax (as a rule, the greatest response seen or fitted, relative to the assay's reference) was 83.7 ± 2.9%. In addition, the “in situ washout” value at lysosomal GCase came to 10.5 ± 1.75 h. The IC50 (usually the concentration at which inhibition is half-maximal) on lysosomal GCase turned out to be 0.518 ± 0.022 µM; in assay [1] (setting [3]), 0.107 ± 0.0041 µM; in assay [1] (setting [5]), 0.02 ± 0.0008 µM. The Ki (usually the dissociation constant of the complex between target and ligand, obtained from inhibition or displacement) in assay [1] (setting [2]) was determined as 0.044 ± 0.0017 µM; in assay [1] (setting [4]), 0.01 ± 0.0004 µM.

Take `C[C@H](O)[C@H]1CNC[C@@H](O)[C@@H]1O` (single isomer, unassigned) [Cmpd 10]: the EC50 on GCase was 1.06 ± 0.12 µM. For the same compound, the “in situ washout” value on lysosomal GCase is 12 ± 1.65 h. Further, the IC50 was determined as 0.798 ± 0.043 µM on lysosomal GCase, 0.343 ± 0.021 µM in assay [1] (setting [3]) and 0.066 ± 0.0041 µM in assay [1] (setting [5]). Moreover, the Ki in assay [1] (setting [2]) amounted to 0.142 ± 0.0088 µM; in assay [1] (setting [4]) it was 0.035 ± 0.0021 µM.

For the compound `C[C@H](F)C1CNC[C@@H](O)[C@@H]1O` (stereo in doubt) [Cmpd 13, (3R,4R,5R)-5((S)-1-Fluoroethyl)piperidine 3,4-diol Hydrochloride], the “in situ washout” value at lysosomal GCase was found to be 2.7 ± 0.12 h.

As to `O[C@@H]1[C@@H]([C@H](O)c2ccccc2)CNC[C@H]1O` [(3R,4R,5R)-5-((S)-hydroxy(phenyl)methyl)-piperidine-3,4-diol], at GCase, the EC50 amounted to 4.99 ± 0.86 µM. For the same compound, the Ki was 1.36 ± 0.1 µM in assay [1] (setting [2]), 1.36 ± 0.1 µM in assay [1] (setting [6]), 1.36 ± 0.1 µM in assay [1] (setting [7]) and 0.0089 ± 0.0018 µM in assay [1] (setting [4]). Also, the IC50 stood at 3.29 ± 0.25 µM in assay [1] (setting [3]) and 0.017 ± 0.0035 µM in assay [1] (setting [5]).

With `CC(C)(O)[C@H]1CNC[C@@H](O)[C@@H]1O` [(3R,4R,5S)-5-(2-hydroxypropan-2-yl)piperidine-3,4-diol], the EC50 at GCase stood at 0.791 ± 0.162 µM. Further, the inhibitory constant (Ki) in assay [1] (setting [2]) amounted to 0.097 ± 0.0015 µM; in assay [1] (setting [6]), 0.097 ± 0.0015 µM; in assay [1] (setting [7]), 0.097 ± 0.0015 µM; in assay [1] (setting [4]), 0.015 ± 0.0007 µM. Moreover, the IC50 in assay [1] (setting [3]) is 0.234 ± 0.0037 µM; in assay [1] (setting [5]), 0.029 ± 0.0013 µM.

Take `C[C@@H](F)[C@@H]1CNC[C@@H](O)[C@@H]1O.Cl` [Cmpd 14, (3R,4R,5R)-5((R)-(1-Fluoroethyl)piperidine 3,4-diol Hydrochloride]: at GCase, the EC50 was found to be 0.026 ± 0.003 µM. Moreover, the IC50 came out at 0.061 ± 0.019 µM at lysosomal GCase, 0.038 ± 0.0016 µM in assay [1] (setting [3]) and 0.007 ± 0.0003 µM in assay [1] (setting [5]). Moreover, the Ki in assay [1] (setting [2]) stood at 0.016 ± 0.0007 µM; in assay [1] (setting [4]), 0.004 ± 0.0001 µM.

In the case of `C[C@@H](F)[C@@H]1CNC[C@@H](O)[C@@H]1O.Cl` [Cmpd 14], the “Emax (%)” value at GCase worked out at 89.7 ± 3.5%. For the same compound, the “in situ washout” value at lysosomal GCase amounted to 3.7 ± 0.63 h.
